The test deals with T1, sGC α1/β1 heterodimer (Homo sapiens, UniProt Q02108+Q02153).
T1 construct: expressed in transfected cells; host or cells: CHO-K1 (clone #7, CHO-K1/sGC)
T1 sequence (Q02108 1-690): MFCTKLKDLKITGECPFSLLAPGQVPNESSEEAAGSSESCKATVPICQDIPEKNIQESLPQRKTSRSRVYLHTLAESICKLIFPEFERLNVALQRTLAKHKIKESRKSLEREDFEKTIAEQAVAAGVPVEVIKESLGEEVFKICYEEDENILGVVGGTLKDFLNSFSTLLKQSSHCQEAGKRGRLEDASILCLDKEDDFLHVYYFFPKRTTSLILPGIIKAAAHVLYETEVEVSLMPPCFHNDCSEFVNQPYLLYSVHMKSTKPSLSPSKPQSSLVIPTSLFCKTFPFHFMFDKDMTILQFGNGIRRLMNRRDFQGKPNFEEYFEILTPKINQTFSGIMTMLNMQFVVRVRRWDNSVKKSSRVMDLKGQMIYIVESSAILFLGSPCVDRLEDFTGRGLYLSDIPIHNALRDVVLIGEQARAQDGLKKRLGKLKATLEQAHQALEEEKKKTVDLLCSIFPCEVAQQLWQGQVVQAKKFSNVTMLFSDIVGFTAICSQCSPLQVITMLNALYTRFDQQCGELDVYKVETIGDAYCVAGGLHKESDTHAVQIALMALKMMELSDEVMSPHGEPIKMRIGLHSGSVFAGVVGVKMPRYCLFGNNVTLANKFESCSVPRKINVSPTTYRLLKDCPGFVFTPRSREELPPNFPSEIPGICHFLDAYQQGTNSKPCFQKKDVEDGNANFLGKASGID
T1 sequence (Q02153 1-619): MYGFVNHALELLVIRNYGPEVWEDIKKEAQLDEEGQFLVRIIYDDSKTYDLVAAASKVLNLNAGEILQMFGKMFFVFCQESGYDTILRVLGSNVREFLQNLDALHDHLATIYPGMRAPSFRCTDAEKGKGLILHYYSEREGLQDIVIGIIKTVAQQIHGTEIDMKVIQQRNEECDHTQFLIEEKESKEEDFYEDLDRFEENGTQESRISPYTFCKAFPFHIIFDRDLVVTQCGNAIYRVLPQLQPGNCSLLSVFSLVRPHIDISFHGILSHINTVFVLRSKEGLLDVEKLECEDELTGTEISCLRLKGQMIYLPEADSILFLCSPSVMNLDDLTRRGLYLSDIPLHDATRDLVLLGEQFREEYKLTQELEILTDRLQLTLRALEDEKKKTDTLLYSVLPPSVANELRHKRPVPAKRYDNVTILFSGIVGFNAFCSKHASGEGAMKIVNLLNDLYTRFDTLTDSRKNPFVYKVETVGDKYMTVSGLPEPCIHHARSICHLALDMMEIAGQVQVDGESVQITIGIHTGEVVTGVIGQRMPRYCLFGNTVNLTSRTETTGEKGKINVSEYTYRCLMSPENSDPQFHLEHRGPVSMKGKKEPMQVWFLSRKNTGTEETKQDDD
Briefly: Cell-Based sGC Functional Assay (CASA Assay), cGMP by HTRF in CHO-K1/sGC cells. The note with it: for Emax: CHO-K1, percent activation relative to maximum cGMP production of Compound A (= 100%), read-out: % Act.; for EC50: cGMP production, 1 hr at 37° C., 4P fit, presence or absence of 1 μM DETA-NO not given, read-out: IP (nM) (inflection point). From the text:
Biological Assay 1: Cell-Based sGC Functional Assay (CASA Assay)
sGC is a heme-containing enzyme that converts GTP to secondary messenger cGMP. Increases in cGMP levels affect several physiological processes including vasorelaxation through multiple downstream pathways. […] Heme-dependent activators (HDAs) preferentially activate sGC containing a ferrous heme group. To determine the effect of sGC activators on enzyme activity, the CASA assay was developed to monitor the generation of cGMP in a cell line that stably expresses the heterodimeric sGC protein.
A CHO-K1 cell line stably expressing the sGC α1/β1 heterodimer was generated using a standard transfection protocol. CHO-K1 cells were transfected with plasmids pIREShyghsGCα1 and pIRESneo-hsGCβ1 simultaneously using FUGENE reagent. Clones that stably express both subunits were selected with hygromycin and neomycin for ˜2 weeks. Clone #7 was chosen for the assay and was designated CHO-K1/sGC. CHO-K1/sGC cells were maintained in F-K12 medium containing 10% heat-inactivated Fetal Bovine Serum (FBS), 100 μg/mL penicillin/streptomycin, 0.5 mg/mL hygromycin and 0.25 mg/mL G418. The cells were then cryopreserved in LN2. On the day of the assay, cells were thawed and resuspended in EBSS Assay Buffer (Sigma, E3024) supplemented with 5 mM MgCl2, 10 mM HEPES (4-(2-hydroxyethyl)piperazine-1-ethanesulfonic acid) and 0.05% BSA (bovine serum albumin) (EAB) and cell density was then adjusted to 4×10^5/mL with EAB. IBMX (3-isobutyl-1-methylxanthin, 0.5 mM) was added to inhibit degradation of cGMP. Compounds were diluted from DMSO stock solutions and added to the assay at a final DMSO concentration of 2.5%. Cells were incubated with compounds in the presence and absence of 1 μM of Diethylenetriamine/nitric oxide adduct (DETA-NO; Sigma, 17018) for 1 hr at 37° C. At the end of the incubation period, the reaction was terminated and the cells were lysed with the detection reagents from Cisbio Kits. The level of intracellular cGMP was determined using an HTRF-based assay kit (CisBio, 62GM2PEC), which detects the displacement of a fluorescence labeled cGMP from its specific antibody. The cGMP produced by test compounds was directly compared to the maximum cGMP production (this value was set to equal 100% activation.) of the published sGC-HDA Compound A:
[drawing 175] (Example 1 in WO 2010/065275, published Jun. 10, 2010). The test compounds' activities were then expressed as a percentage of Compound A, the standard in every experiment. This percent activation was calculated either in the presence or absence of DETA-NO which was then plotted. IP and maximum fold induction was derived using ADA analysis software for 4P fit.
The compounds in the Examples of the instant invention had inflection points (IP) less than or equal to 10 μM and most less than or equal to about 1 μM.

Data on ten compounds can be found in patent US10213429B2, “Imidazo-pyrazinyl derivatives useful as soluble guanylate cyclase activators” (Merck Sharp & Dohme Corp., priority 2015, dated 2019).

SMILES strings stand for the structures.

As to `CCCCc1nc(-c2nc(O)c3c(n2)NC(=O)C3(C)c2ccc(F)cn2)cn2ccnc12` (centres unmarked) [Example 83B, 2-(8-butylimidazo[1,2-a]pyrazin-6-yl)-5-(5-fluoropyridin-2-yl)-4-hydroxy-5-methyl-5H-pyrrolo[2,3-d]pyrimidin-6(7H)-one], the Emax was 109% and the EC50 was 234 nM.
For `O=C1Nc2nc(-c3cn4ccnc4c(CCCC(F)(F)F)n3)ncc2C1(c1ccc(Cl)c(F)c1)C1CC1` (centres unmarked) [Example 48A, 5-(4-chloro-3-fluorophenyl)-5-cyclopropyl-2-(8-(4,4,4-trifluorobutyl)imidazo[1,2-a]pyrazin-6-yl)-5H-pyrrolo[2,3-d]pyrimidin-6(7H)-one], the Emax is 130% and the EC50 turned out to be 24 nM.
`COc1nc(-c2cn3ccnc3c(CCC(F)(F)C(F)(F)F)n2)nc2c1C(C)(c1ccc(F)cc1)C(=O)N2` (centres unmarked) [Example 89A, 5-(4-Fluorophenyl)-4-methoxy-5-methyl-2-(8-(3,3,4,4,4-pentafluorobutyl)imidazo[1,2-a]pyrazin-6-yl)-5H-pyrrolo[2,3-d]pyrimidin-6(7H)-one]: the Emax came out at 110% and the EC50 turned out to be 606 nM.
`O=C1Nc2nc(-c3cn4ccnc4c(Cc4ccccc4F)n3)ncc2C1(C(=O)NC1CC1)C1CC1` (single isomer, unassigned) [Example 70B, N,5-dicyclopropyl-2-(8-(2-fluorobenzyl)imidazo[1,2-a]pyrazin-6-yl)-6-oxo-6,7-dihydro-5H-pyrrolo[2,3-d]pyrimidine-5-carboxamide]: the EC50 came to 61 nM. Moreover, the “% Act.” value (percent activation relative to maximum cGMP production of Compound A (= 100%)) worked out at 130%.
On to `CCCCc1nc(-c2nc(O)c3c(n2)NC(=O)C3(c2ccc(Cl)c(F)c2)C2CC2)cn2ccnc12` (centres unmarked) [Example 21A, 2-(8-butylimidazo[1,2-a]pyrazin-6-yl)-5-(4-chloro-3-fluorophenyl)-5-cyclopropyl-4-hydroxy-5H-pyrrolo[2,3-d]pyrimidin-6(7H)-one], for which the Emax came to 122% and the EC50 amounted to 115 nM.
Turning to `CC1(c2ccc(Cl)cc2)C(=O)Nc2nc(-c3cn4ccnc4c(CCCC(F)(F)F)n3)ncc21` (centres unmarked) [Example 40A, 5-(4-chlorophenyl)-5-methyl-2-(8-(4,4,4-trifluorobutyl)imidazo[1,2-a]pyrazin-6-yl)-5H-pyrrolo[2,3-d]pyrimidin-6(7H)-one], the Emax worked out at 110% and the EC50 was 22 nM.
For `CC1(c2ccc(F)cn2)C(=O)Nc2nc(-c3cn4ccnc4c(CCC(F)(F)C(F)(F)F)n3)nc(C3CC3)c21` (centres unmarked) [Example 71B, 4-Cyclopropyl-5-(5-fluoropyridin-2-yl)-5-methyl-2-(8-(3,3,4,4,4-pentafluorobutyl)imidazo[1,2-a]pyrazin-6-yl)-5H-pyrrolo[2,3-d]pyrimidin-6(7H)-one], in that order: 135% and 23 nM.
In the same order, the values of `CCCCc1nc(-c2nc3c(c(C4CC4)n2)C(C)(c2ccc(F)cn2)C(=O)N3)cn2ccnc12` (centres unmarked) [Example 72B, 2-(8-butylimidazo[1,2-a]pyrazin-6-yl)-4-cyclopropyl-5-(5-fluoropyridin-2-yl)-5-methyl-5H-pyrrolo[2,3-d]pyrimidin-6(7H)-one] are 179% and 81 nM.
For `CC1(c2ccc(Cl)cc2)C(=O)Nc2nc(-c3cn4ccnc4c(CCC(F)(F)F)n3)nc(C3CC3)c21` (centres unmarked) [Example 74A, 5-(4-chlorophenyl)-4-cyclopropyl-5-methyl-2-(8-(3,3,3-trifluoropropyl)imidazo[1,2-a]pyrazin-6-yl)-5H-pyrrolo[2,3-d]pyrimidin-6(7H)-one], in that order: 165% and 124 nM.
`CCCCc1nc(-c2nc(O)c3c(n2)NC(=O)C3(C)c2ccc(F)cc2)cn2ccnc12` (centres unmarked) [Example 79A, 2-(8-Butylimidazo[1,2-a]pyrazin-6-yl)-5-(4-fluorophenyl)-4-hydroxy-5-methyl-5H-pyrrolo[2,3-d]pyrimidin-6(7H)-one]: the Emax was 100% and the EC50 turned out to be 133 nM.
